Data published in ChEMBL document CHEMBL3785084, “Rational modification of the lead molecule: Enhancement in the anticancer and dihydrofolate reductase inhibitory activity” (Bioorg Med Chem Lett, 2016).

What was measured:
CCRF-CEM = test: Cytotoxicity against human CCRF-CEM cells assessed as cell growth at 10^-5 M after 48 hrs by sulforhodamine B assay; assay type: functional; settings: read-out: Activity
[1] = Cytotoxicity against human HL-60(TB) cells assessed as cell growth at 10^-5 M after 48 hrs by sulforhodamine B assay; assay type: functional; settings: HL-60, 48 h, read-out: Activity
K562 = test: Cytotoxicity against human K562 cells assessed as cell growth at 10^-5 M after 48 hrs by sulforhodamine B assay; assay type: functional; settings: K562, 48 h, read-out: Activity
[2] = Cytotoxicity against human MOLT4 cells assessed as cell growth at 10^-5 M after 48 hrs by sulforhodamine B assay; assay type: functional; settings: MOLT-4, 48 h, read-out: Activity
[3] = Cytotoxicity against human RPMI8226 cells assessed as cell growth at 10^-5 M after 48 hrs by sulforhodamine B assay; assay type: functional; settings: RPMI-8226, 48 h, read-out: Activity
NCI-H460 = test: Cytotoxicity against human NCI-H460 cells assessed as cell growth at 10^-5 M after 48 hrs by sulforhodamine B assay; assay type: functional; settings: NCI-H460, 48 h, read-out: Activity
NCI-H522 = test: Cytotoxicity against human NCI-H522 cells assessed as cell growth at 10^-5 M after 48 hrs by sulforhodamine B assay; assay type: functional; settings: NCI-H522, 48 h, read-out: Activity
[4] = Cytotoxicity against human HCC2998 cells assessed as cell growth at 10^-5 M after 48 hrs by sulforhodamine B assay; assay type: functional; settings: HCC 2998, 48 h, read-out: Activity
[5] = Cytotoxicity against human HCT15 cells assessed as cell growth at 10^-5 M after 48 hrs by sulforhodamine B assay; assay type: functional; settings: HCT-15, 48 h, read-out: Activity
[6] = Cytotoxicity against human SNB19 cells assessed as cell growth at 10^-5 M after 48 hrs by sulforhodamine B assay; assay type: functional; settings: SNB-19, 48 h, read-out: Activity
SK-MEL-5 = test: Cytotoxicity against human SK-MEL-5 cells assessed as cell growth at 10^-5 M after 48 hrs by sulforhodamine B assay; assay type: functional; settings: SK-MEL-5, 48 h, read-out: Activity
[7] = Cytotoxicity against human UACC257 cells assessed as cell growth at 10^-5 M after 48 hrs by sulforhodamine B assay; assay type: functional; settings: UACC-257, 48 h, read-out: Activity
[8] = Cytotoxicity against human UACC62 cells assessed as cell growth at 10^-5 M after 48 hrs by sulforhodamine B assay; assay type: functional; settings: UACC-62, 48 h, read-out: Activity
[9] = Cytotoxicity against human IGROV1 cells assessed as cell growth at 10^-5 M after 48 hrs by sulforhodamine B assay; assay type: functional; settings: IGROV-1, 48 h, read-out: Activity
[10] = Cytotoxicity against human OVCAR4 cells assessed as cell growth at 10^-5 M after 48 hrs by sulforhodamine B assay; assay type: functional; settings: OVCAR-4, 48 h, read-out: Activity
[11] = Cytotoxicity against human OVCAR5 cells assessed as cell growth at 10^-5 M after 48 hrs by sulforhodamine B assay; assay type: functional; settings: OVCAR-5, 48 h, read-out: Activity
A498 [12] = test: Cytotoxicity against human A498 cells assessed as cell growth at 10^-5 M after 48 hrs by sulforhodamine B assay; assay type: functional; settings: A498, 48 h, read-out: Activity
ACHN = test: Cytotoxicity against human ACHN cells assessed as cell growth at 10^-5 M after 48 hrs by sulforhodamine B assay; assay type: functional; settings: read-out: Activity
[13] = Cytotoxicity against human UO31 cells assessed as cell growth at 10^-5 M after 48 hrs by sulforhodamine B assay; assay type: functional; settings: UO-31, 48 h, read-out: Activity
[14] = Cytotoxicity against human PC3 cells assessed as cell growth at 10^-5 M after 48 hrs by sulforhodamine B assay; assay type: functional; settings: PC-3, 48 h, read-out: Activity
T47D = test: Cytotoxicity against human T47D cells assessed as cell growth at 10^-5 M after 48 hrs by sulforhodamine B assay; assay type: functional; settings: read-out: Activity
SR = test: Cytotoxicity against human SR cells after 48 hrs by sulforhodamine B assay; assay type: functional
cells [15] = settings: Homo sapiens, UACC-62, 48 h
Description: Cytotoxicity against human UACC62 cells after 48 hrs by sulforhodamine B assay

cells [16] = settings: Homo sapiens, OVCAR-5, 48 h
Description: Cytotoxicity against human OVCAR5 cells after 48 hrs by sulforhodamine B assay

A498 [17] = test: cells; settings: Homo sapiens, A498, 48 h
Description: Cytotoxicity against human A498 cells after 48 hrs by sulforhodamine B assay

A549 = test: cells; settings: Homo sapiens, A549, 48 h
Description: Cytotoxicity against human A549 cells after 48 hrs by sulforhodamine B assay

cells [18] = settings: Homo sapiens, HOP-62, 48 h
Description: Cytotoxicity against human HOP62 cells after 48 hrs by sulforhodamine B assay

NCI-H226 = test: cells; settings: Homo sapiens, NCI-H226, 48 h
Description: Cytotoxicity against human NCI-H226 cells after 48 hrs by sulforhodamine B assay

cells [19] = settings: Homo sapiens, HCC 2998, 48 h
Description: Cytotoxicity against human HCC2998 cells after 48 hrs by sulforhodamine B assay

cells [20] = settings: Homo sapiens, HCT-15, 48 h
Description: Cytotoxicity against human HCT15 cells after 48 hrs by sulforhodamine B assay

KM12 = test: cells; settings: Homo sapiens, KM12, 48 h
Description: Cytotoxicity against human KM12 cells after 48 hrs by sulforhodamine B assay

cells [21] = settings: Homo sapiens, SF-539, 48 h
Description: Cytotoxicity against human SF539 cells after 48 hrs by sulforhodamine B assay

cells [22] = settings: Homo sapiens, SNB-19, 48 h
Description: Cytotoxicity against human SNB19 cells after 48 hrs by sulforhodamine B assay

cells [23] = settings: Homo sapiens, SNB-75, 48 h
Description: Cytotoxicity against human SNB75 cells after 48 hrs by sulforhodamine B assay

cells [24] = settings: Homo sapiens, LOX IMVI, 48 h
Description: Cytotoxicity against human LOXIMVI cells after 48 hrs by sulforhodamine B assay

MDA-MB-435 = test: cells; settings: Homo sapiens, MDA-MB-435, 48 h
Description: Cytotoxicity against human MDA-MB-435 cells after 48 hrs by sulforhodamine B assay

SK-MEL-28 = test: cells; settings: Homo sapiens, SK-MEL-28, 48 h
Description: Cytotoxicity against human SK-MEL-28 cells after 48 hrs by sulforhodamine B assay

COc1cc(/C=C2\C(=O)Nc3ccccc32)cc(OC)c1O
growth at 10 µM (CCRF-CEM): 26.7% | growth at 10 µM [1]: 1.88% | growth at 10 µM (K562): 7.58% | growth at 10 µM [2]: 0.62% | growth at 10 µM [3]: 46.6% | growth at 10 µM (NCI-H460): 40.1% | growth at 10 µM (NCI-H522): 8.78% | growth at 10 µM [4]: 78.8% | growth at 10 µM [5]: 61.6% | growth at 10 µM [6]: 83.7% | growth at 10 µM (SK-MEL-5): 45.7% | growth at 10 µM [7]: 62.6% | growth at 10 µM [8]: 72.1% | growth at 10 µM [9]: 70.2% | growth at 10 µM [10]: 89.1% | growth at 10 µM [11]: 112% | growth at 10 µM (A498 [12]): 52.5% | growth at 10 µM (ACHN): 77% | growth at 10 µM [13]: 60% | growth at 10 µM [14]: 51.2% | growth at 10 µM (T47D): 49.6% | GI50 (SR): 1.5 µM | TGI (SR): 16.9 µM | CC50 (SR; read-out: LC50 (the source's name)): > 100 µM | GI50 (cells [15]): 2.6 µM | TGI (cells [15]): 11.2 µM | CC50 (cells [15]; read-out: LC50): 35.4 µM | GI50 (cells [16]): 4.7 µM | TGI (cells [16]): 18.6 µM | CC50 (cells [16]; read-out: LC50): 52.4 µM | GI50 (A498 [17]): 2.1 µM | TGI (A498 [17]): 15.8 µM | CC50 (A498 [17]; read-out: LC50): > 100 µM | GI50 (A549): 4.9 µM | TGI (A549): 47.8 µM | CC50 (A549; read-out: LC50): > 100 µM | GI50 (cells [18]): 4.3 µM | TGI (cells [18]): 23.4 µM | CC50 (cells [18]; read-out: LC50): > 100 µM | GI50 (NCI-H226): 17.7 µM | TGI (NCI-H226): > 100 µM | CC50 (NCI-H226; read-out: LC50): > 100 µM | GI50 (cells [19]): 11.7 µM | TGI (cells [19]): 24.5 µM | CC50 (cells [19]; read-out: LC50): 51.3 µM | GI50 (cells [20]): 3.2 µM | TGI (cells [20]): 15.1 µM | CC50 (cells [20]; read-out: LC50): 64.5 µM | GI50 (KM12): 2.5 µM | TGI (KM12): 11.5 µM | CC50 (KM12; read-out: LC50): 36.3 µM | GI50 (cells [21]): 2.5 µM | TGI (cells [21]): 13.2 µM | CC50 (cells [21]; read-out: LC50): 53.7 µM | GI50 (cells [22]): 4.5 µM | TGI (cells [22]): 54.9 µM | CC50 (cells [22]; read-out: LC50): > 100 µM | GI50 (cells [23]): 11.7 µM | TGI (cells [23]): 8.5 µM | CC50 (cells [23]; read-out: LC50): > 100 µM | GI50 (cells [24]): 4 µM | TGI (cells [24]): 16.2 µM | CC50 (cells [24]; read-out: LC50): 44.6 µM | GI50 (MDA-MB-435): 0.6 µM | TGI (MDA-MB-435): 2.2 µM | CC50 (MDA-MB-435; read-out: LC50): 6 µM | GI50 (SK-MEL-28): 5 µM | TGI (SK-MEL-28): 22.9 µM | CC50 (SK-MEL-28; read-out: LC50): 83.2 µM
